{"source": "patent US20260078341A1", "about": "“TREATMENT OF CANCER USING CHIMERIC ANTIGEN RECEPTOR” (Novartis AG, priority 2014, published 2026)", "system": "H3N2 A/Victoria/210/2009", "assay": "Hemagglutination inhibition titers after influenza vaccination, A/H3N2 vaccine strain", "assay_type": "in vivo, human", "details": "for HI GMT ratio (CV %) A/H3N2: GMT at week 4 post vaccination/GMT at baseline", "procedure": "The trial was observer-blind because the placebo in the RAD001 0.5 mg daily and 20 mg weekly cohorts differed slightly from the RAD001 tablets in those cohorts. […] The treatment duration for all cohorts was 6 weeks during which time subjects underwent safety evaluations in the clinic every 2 weeks. After subjects had been dosed for 4 weeks, RAD001 steady state levels were measured pre-dose and at one hour post dose. After completing the 6 week course of study drug, subjects were given a 2 week drug free break to reverse any possible RAD001-induced immunosuppression, and then were given a 2012 seasonal influenza vaccination (Agrippal®, Novartis Vaccines and Diagnostics, Siena, Italy) containing the strains H1N1 A/California/07/2009, H3N2 A/Victoria/210/2009, B/Brisbane/60/2008. Four weeks after influenza vaccination, subjects had serum collected for influenza titer measurements. Antibody titers to the 3 influenza vaccine strains as well as to 2 heterologous strains (A/H1N1 strain A/New Jersy/8/76 and A/H3N2 strain A/Victoria/361/11) were measured by standard hemagglutination inhibition assay (Kendal, A P et al. (1982) Concepts and procedures for laboratory-based influenza surveillance. Atlanta: Centers for Disease Control and Prevention B17-B35). Levels of IgG and IgM specific for the A/H1N1/California/07/2009 were measured in serum samples taken before and 4 weeks after influenza vaccination as described previously (Spensieri, F. et al. (2013) Proc. Natl. Acad. Sci. USA 110:14330-14335). Results were expressed as fluorescence intensity.\nThe primary analysis of geometric mean titer ratios was done using a normal Bayesian regression model with non-informative priors. This model was fitted to each antibody titer on the log scale. The primary outcome in each model was the Day 84 measurement. The Day 63 measurement was included in the outcome vector. The model fitted using SAS 9.2 proc mixed with the prior statement. The covariance structure of the matrix was considered as unstructured (option type=UN). A flat prior was used. For the secondary analysis of seroconversion rates, logistic regression was used.\nThe ability of RAD001 to improve immune function in elderly volunteers was evaluated by measuring the serologic response to the 2012 seasonal influenza vaccine. The hemagglutination inhibition (HI) geometric mean titers (GMT) to each of the 3 influenza vaccine strains at baseline and 4 weeks after influenza vaccination are provided in Table 6. The primary analysis variable was the HI GMT ratio (4 weeks post vaccination/baseline). […] This endpoint was chosen because a 1.2-fold increase in the influenza GMT ratio induced by the MF-59 vaccine adjuvant was associated with a decrease in influenza illness (Iob, A et al. (2005) Epidemiol Infect 133:687-693).\nRates of seroconversion 4 weeks after influenza vaccination were also evaluated. Seroconversion was defined as the change from a negative pre-vaccination titer (i.e., HI titer <1:10) to post-vaccination HI titer ≥1:40 or at least 4-fold increase from a non-negative (>1:10) pre-vaccination HI titer."}
{"smiles": "CO[C@H]1C[C@@H]2CC[C@@H](C)[C@@](O)(O2)C(=O)C(=O)N2CCCC[C@H]2C(=O)O[C@H]([C@H](C)C[C@@H]2CC[C@@H](OCCO)[C@H](OC)C2)CC(=O)[C@H](C)/C=C(\\C)[C@@H](O)[C@@H](OC)C(=O)[C@H](C)C[C@H](C)/C=C/C=C/C=C/1C", "note": "[RAD001, (1R,9S,12S,15R,16E,18R,19R,21R,23S,24E,26E,28E,30S,32S,35R)-1,18-dihydroxy-12-{(1R)-2-[(1S,3R,4R)-4-(2-hydroxyethoxy)-3-methoxycyclohexyl]-1-methylethyl}-19,30-dimethoxy-15,17,21,23,29,35-hexamethyl-11,36-dioxa-4-azatricyclo[30.3.1.0^4,9]hexatriaconta-16,24,26,28-tetraene-2,3,10,14,20-pentaone]", "values": [{"measurement": "HI GMT (CV %) A/H3N2", "setting": "Baseline (2 weeks prior to influenza vaccination), RAD001 0.5 mg daily", "result": "106.8 (168.2)"}, {"measurement": "HI GMT (CV %) A/H3N2", "setting": "Baseline (2 weeks prior to influenza vaccination), RAD001 5 mg weekly", "result": "126.04 (162.6)"}, {"measurement": "HI GMT (CV %) A/H3N2", "setting": "Baseline (2 weeks prior to influenza vaccination), RAD001 20 mg weekly", "result": "137.1 (211.5)"}, {"measurement": "HI GMT ratio (CV %) A/H3N2", "setting": "RAD001 0.5 mg daily", "result": "2.1 (152.6)"}, {"measurement": "HI GMT ratio (CV %) A/H3N2", "setting": "RAD001 5 mg weekly", "result": "2.0 (189.2)"}, {"measurement": "HI GMT ratio (CV %) A/H3N2", "setting": "RAD001 20 mg weekly", "result": "2.1 (277.3)"}, {"measurement": "Percent of subjects with seroconversion to influenza 4 weeks after vaccination, H3N2", "setting": "Intention to Treat Population, 0.5 mg", "result": 27, "unit": "%"}, {"measurement": "Percent of subjects with seroconversion to influenza 4 weeks after vaccination, H3N2", "setting": "Intention to Treat Population, 5 mg", "result": 24, "unit": "%"}, {"measurement": "Percent of subjects with seroconversion to influenza 4 weeks after vaccination, H3N2", "setting": "Intention to Treat Population, 20 mg", "result": 25, "unit": "%"}, {"measurement": "Percent of subjects with seroconversion to influenza 4 weeks after vaccination, H3N2", "setting": "Subjects with Baseline Titers <=40, 0.5 mg", "result": 64, "unit": "%"}, {"measurement": "Percent of subjects with seroconversion to influenza 4 weeks after vaccination, H3N2", "setting": "Subjects with Baseline Titers <=40, 5 mg", "result": 53, "unit": "%"}, {"measurement": "Percent of subjects with seroconversion to influenza 4 weeks after vaccination, H3N2", "setting": "Subjects with Baseline Titers <=40, 20 mg", "result": 71, "unit": "%"}, {"measurement": "HI GMT (CV %) A/H3N2", "setting": "Week 4 after influenza vaccination, RAD001 0.5 mg daily", "result": "194.4 (129.1)"}, {"measurement": "HI GMT (CV %) A/H3N2", "setting": "Week 4 after influenza vaccination, RAD001 5 mg weekly", "result": "223.0 (118.8)"}, {"measurement": "HI GMT (CV %) A/H3N2", "setting": "Week 4 after influenza vaccination, RAD001 20 mg weekly", "result": "223.0 (163.6)"}]}
